Format in all cases: in vivo, rat
The subject of one experiment is aldosterone infused rats. The experiment in a line: Assay B aldosterone infusion model: heart histology (vascular inflammatory lesions, myocardial injury). The conditions noted are these: saline-drinking, uni-nephrectomized rats, 4 weeks, eplerenone 100 mpk p.o. The protocol:
Assay B: In vivo Aldosterone Infusion Model Male Sprague Dawley rats (n=39; BW=250 g) […] Uni-nephrectomy performed during implantation of mini-pumps 2. Aldosterone (0.75 mg/hr, sc via aizet minipump) 2. […] 1. […] Sacrifice after 4 weeks. Hearts were harvested and divided by half through a transverse section at the mid-ventricles: The upper half was stored into formalin. The bottom part was snap-frozen in liquid nitrogen for biochemical analysis. Hearts were stained with hematoxylin&eosin and the collagen specific dye picro-sirius red and were analyzed for determination of interstitial collagen volume fraction and morphologic abnormalities (i.e. necrosis, vascular injury).

The next experiment deals with hydroxyproline. The experiment in a line: Assay C: myocardial hydroxyproline assay. As to conditions: for Hydroxyproline: individual rats; for Hydroxyproline, Mean: group mean. As for the experimental part:
The procedure of Assay B was expanded upon in a further study. […] Myocardial tissue from animals in each treatment group was examined after 7, 14, or 30 days of treatment. […] Lesions were preceded by the expression and progressive upregulation of proinflammatory molecules. […] Prior to surgery the animals were individually weighed and placed in one of the following groups: […] Potassium chloride supplementation was added to the saline solution in order to prevent the potential hypokalemia associated with aldosterone excess. […] Louis, Mo.) was inserted subcutaneously at the nape of the neck. Aldosterone was administered at a dose of […]. […] Animals were sacrificed from each group (n=8-13) after 7, 14, or 30 days of treatment. Following exsanguination, hearts and kidneys were isolated, removed, rinsed in cold phosphate-buffered saline, and blotted dry. […] Myocardial hydroxyproline concentration was measured by a colorimetric assay that quantifies the reaction between oxidized hydroxyproline, and p-dimethylaminobenzaldehyde as described previously (4). […] Dried tissues and a positive collagen control (Bovine Collagen Type I, Sigma, St. […] T. Baker, Phillipsburg, N.J.) for 5 min at 25° C. […] Samples were incubated at 60° C. for 30 min, cooled to room temperature, and absorbance was monitored at 558 nm. Hydroxyproline content was quantitated from a freshly prepared standard curve of trans-4-hydroxy-L-proline (Sigma, St. Louis, Mo.). All samples and standards were performed in duplicate.

Experiment [1] relates to osteopontin. The experiment in a line: Assay A angiotensin II infusion model: osteopontin immunostaining of hearts. As to conditions: angiotensin II infused, saline-drinking rats; eplerenone 100 mpk. As for the experimental part:
Male Wistar rats (n—50, 10/group; BW=200 g)
2. Angiotensin 11 (25 ng/min, sc via aizet minipump)
Osteopontin (also known as early T-cell activation-1, Eta-1) is a secreted glycoprotein with pro-inflammatory characteristics that mediates chemoattraction, activation and migration of monocytes.

Experiment [2] concerns osteopontin. The experiment in a line: Assay C: osteopontin relative mRNA expression in heart (TaqMan). The conditions noted are these: for Osteopontin, Mean / Osteopontin: mRNA; for Osteopontin, Mean: group mean; for Osteopontin: individual rats. The protocol:
The procedure of Assay B was expanded upon in a further study. […] Myocardial tissue from animals in each treatment group was examined after 7, 14, or 30 days of treatment.
Potassium chloride supplementation was added to the saline solution in order to prevent the potential hypokalemia associated with aldosterone excess.
At the time of the surgery, an Alzet 2002 osmotic minipump (Alza Corp., Palo Alto, Calif.) containing either vehicle (9% ethanol/87% propylene glycol/4% dH2O) or 1.0 mg/mL d-aldosterone (Sigma Chemical, St. Louis, Mo.) was inserted subcutaneously at the nape of the neck. Aldosterone was administered at a dose of 0.75 g/hour. […] Animals were sacrificed from each group (n=8-13) after 7, 14, or 30 days of treatment.
The fluorogenic 5′-nuclease assay (TaqMan PCR) using Applied Biosystems' 7700 Sequence Detection System (Applied Biosystems, Foster City, Calif.) allowed for real time detection/quantitation of a specific gene by monitoring the increase in fluorescence of a gene-specific, dye-labeled oligonucleotide probe. Probes for target and reference genes were labeled at the 5′-end with a 6-carboxyfluorescein (6FAM) reporter dye and at the 3′-end with a 6-carboxy-N,N,N′,N′-tetramethylrhodamine (TAMRA) quencher dye. When the probe was annealed to the target gene, fluorescence of 6FAM was prevented by the close proximity of TAMRA. The exonuclease activity of Taq polymerase released the dyes from the oligonucleotide probe by displacing the probe from the target sequence resulting in fluorescence excitation in direct proportion to the amount of target message present. Data analysis was performed using the Sequence Detection System software from Applied Biosystems.
All primers and probes were designed using Primer Express software supplied with the 7700 Sequence Detection System and synthesized by Applied Biosystems. Standard curves using 5-fold dilutions of total RNA (from 200 ng to 320 pg) were performed to determine the efficiency of each primer/probe set in the TaqMan reaction prior to the analysis of the experimental samples. Primer/probe sets were designed from known sequences of rat genes to be analyzed. All target gene values were normalized to a reference gene, constitutively expressed cyclophilin. Primer/probe set sequences can be found in Table 8.
RNA was extracted from frozen (−80° C.) rat heart tissue using the Totally RNA Isolation Kit (Ambion, Inc., Austin, Tex.). Tissue was crushed using a stainless steel mortar and pestle, which had been chilled to −80° C. and transferred to a dounce homogenizer (Kontes, Vineland, N.J.) containing 3-10 mL cold denaturation buffer. Tissue was homogenized and transferred to a sterile, 15 mL polypropylene centrifuge tube. An equal volume of phenol:chloroform:isoamyl alcohol (25:24:1) was added, samples were shaken vigorously for 1 min, and incubated on ice for at least 15 min. Samples were centrifuged for 30 min at 10,000 g. The aqueous phase was removed, 1/10 volume of a sodium acetate solution (3.0 M NaOAc pH 4.5) was added, samples were shaken or inverted for 10 seconds, and acid-phenol (premixed with isoamyl alcohol):chloroform (5:1, Ambion, Inc.) was added at an volume equivalent to the starting sample volume. Samples were shaken vigorously for 1 min, followed by a 15-min incubation on ice, and centrifuged for 30 min at 10,000 g. The aqueous phase removed and placed in a clean polypropylene tube. An equal volume of isopropanol (Sigma, St. Louis, Mo.) was added and the samples were mixed and incubated overnight at −20° C. The samples were centrifuged for 30 min at 10,000 g, the supernatant was removed and the RNA pellet was resuspended in DNAse/RNAse-free water. Samples were frozen at −80° C. for at least 2 hours, thawed on wet ice, and diluted for quantitation.
A general note: In qPCR the cycle at which signal appears reflects the starting amount.

“And” between values parts separate entries of the source, which are not always exact repeats. Equal values may be shown once. “Also recorded” adds a separate entry of the source.

As for `C[C@]12CCC(=O)C=C1CC[C@@H]1[C@@H]2[C@@H](O)C[C@]2(C=O)[C@@H](C(=O)CO)CC[C@@H]12` [aldosterone], the “Vascular inflammatory changes / myocardial injury” value in the experiment with aldosterone infused rats was “severe vascular inflammatory lesions”. Also, the Hydroxyproline was 2.10 µg/mg with hydroxyproline (Table 9.14, 7-day protocol, myocardial, listed as Aldosterone + salt); 2.60 µg/mg and 3.00 µg/mg with hydroxyproline (14 days of treatment, eplerenone 100 mg/kg/day, listed as Aldosterone + salt); 4.00 µg/mg in the experiment on hydroxyproline (30 days of treatment, eplerenone 100 mg/kg/day, listed as Aldosterone + salt). The “Osteopontin expression in the heart (immunostaining)” value in the experiment with osteopontin [1] is given as “restored osteopontin expression”. In addition, the “Osteopontin, Mean” value was 6.56 AU in the experiment on osteopontin [2] (14 days of treatment) and 13.27 AU in the experiment on osteopontin [2] (30 days of treatment). Further, the Osteopontin in the experiment on osteopontin [2] (7 days of treatment, listed as Aldosterone + salt) was 0.84 AU and 0.95 AU and 1.08 AU.

As to `COC(=O)[C@@H]1CC2=CC(=O)CC[C@]2(C)[C@@]23O[C@@H]2C[C@@]2(C)[C@@H](CC[C@@]24CCC(=O)O4)[C@H]13` [eplerenone, Pregn-4-ene-7,21-dicarboxylic acid, 9,11-epoxy-17-hydroxy-3-oxo-, γ-lactone, methyl ester, (7α, 11α, 17β) -], in the experiment on aldosterone infused rats, the “Vascular inflammatory changes / myocardial injury” value was “completely prevented the vascular inflammatory changes; also recorded: prevention by eplerenone of myocardial injury”. Besides, the results for the “Hydroxyproline, Mean” value in the experiment on hydroxyproline (14 days of treatment) and in the experiment with hydroxyproline (30 days of treatment) were 4.46 µg/mg and 4.10 µg/mg, respectively. Besides, the Hydroxyproline was 6.80 µg/mg with hydroxyproline (14 days of treatment, eplerenone 100 mg/kg/day, listed as Eplerenone + aldosterone + salt) and 6.40 µg/mg in the experiment with hydroxyproline (30 days of treatment, eplerenone 100 mg/kg/day, listed as Eplerenone + aldosterone + salt). The “Osteopontin expression in the heart (immunostaining)” value in the experiment with osteopontin [1] is on record as “prevented osteopontin expression”. Also, the “Osteopontin, Mean” value was 0.75 AU in the experiment with osteopontin [2] (7 days of treatment), 2.94 AU with osteopontin [2] (14 days of treatment) and 2.59 AU in the experiment with osteopontin [2] (30 days of treatment). Besides, the Osteopontin in the experiment with osteopontin [2] (7 days of treatment, listed as Eplerenone + aldosterone + salt) is 0.54 AU and 0.52 AU and 0.27 AU and 0.60 AU and 0.96 AU and 0.75 AU; with osteopontin [2] (14 days of treatment, listed as Eplerenone + aldosterone + salt), 1.00 AU and 0.77 AU and 1.59 AU and 0.72 AU and 0.99 AU; in the experiment on osteopontin [2] (30 days of treatment, listed as Eplerenone + aldosterone + salt), 1.28 AU. In addition, the “Osteopontin mRNA expression in myocardium” value in the experiment with osteopontin [2] (time course 7, 14, 30 days, eplerenone 100 mg/kg/day) is listed as “significantly reduced; also recorded: inhibition of early time-course expression of myocardial osteopontin”.
